Assay results reported in article PMC11438102, “Modulation of cannabinoid receptor 2 alters neuroinflammation and reduces formation of alpha-synuclein aggregates in a rat model of nigral synucleinopathy” (Journal of Neuroinflammation, 2024).

System: RAW264.7 macrophages
Experiment: Phagocytosis assay with pHrodo green E. coli bioparticles
Type: cell-based
Conditions: additional incubation, regardless of LPS dose
Protocol: The RAW264.7 macrophage cells (ATCC Cat# TIB-71, RRID: CVCL_0493) were grown in sterile media which consisted of DMEM high glucose, 10% FBS, 2mM L-glutamine, 1x Pen-strep and 1x sodium pyruvate in a humidified 5% CO2 incubator at 37°C. RAW264.7 were maintained in […] tissue culture flasks and plated at a density of 1 × 10^4 cells in triplicate in 96-well plates for assays. Cells were stimulated with either lipopolysaccharide (LPS O111:B4; Sigma Cat#L2630) at 100ng/mL or 1000ng/mL (750EU/mL or 7500 EU/mL, respectively). One hour prior to this stimulation the cells were pre-treated with the CB2 inverse agonist SMM-189 at 3μM or 7 μm or its vehicle. Specifically for cell culture experiments, SMM-189 was formulated with 40% ethanol (v/v), 20% tween-20 (v/v) and 40% saline (v/v). A phagocytosis assay was conducted 24 h after LPS.
The phagocytosis assay was performed using pHrodo green E. coli bioparticles (Invitrogen Cat# P35366) according to the manufacturer’s instructions. Five images per well were then collected every 30 min for 24 h on an EVOS M7000 microscope (Invitrogen, ThermoFisher Scientific). The cells were maintained for this duration using an on-stage incubator kept at 37°C and 5% CO2. Analysis of the collected images was performed using EVOS Celleste software (version 5.0), which counted the cells and then measured the integrated optical density of fluorescence within each well over the 24-hour time course. Analysis was conducted on the average integrated optical density across triplicate wells. Results were consistent across duplicate experimental replicates.

C=C1[C@@H](C)[C@H]2[C@H](Cc3ccccc3)NC(=O)[C@]23[C@H](OC(C)=O)/C=C/[C@@](C)(O)C(=O)[C@@H](C)C/C=C/[C@H]3[C@@H]1O [cytochalasin D, reference compound]
GFP expression (phagocytosis control): significantly restricted
